# Experimental data as given in PubChem BioAssay (NCI).
#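 Grown in 96-well plates, cells were treated for 48 hours with each compound at five concentrations. Insufficient inhibition: endpoint recorded as highest concentration tested. At the GI50, growth is halved. TGI: total growth inhibition.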
# Tests used:
# Assay in all cases: DTP human tumour cell line panel, 48 h
# MCF7 breast = tested on: MCF7 breast
# A549 NSCLC = tested on: A549 NSCLC
# OVCAR-8 ovarian = tested on: OVCAR-8 ovarian
# OVCAR-4 ovarian = tested on: OVCAR-4 ovarian
# TK-10 renal = tested on: TK-10 renal
# SF-539 CNS = tested on: SF-539 CNS
# U251 CNS = tested on: U251 CNS
# SK-MEL-28 melanoma = tested on: SK-MEL-28 melanoma
# EKVX NSCLC = tested on: EKVX NSCLC
# 786-0 renal = tested on: 786-0 renal
# COLO 205 colon = tested on: COLO 205 colon
# BT-549 breast = tested on: BT-549 breast
# NCI-H460 lung = tested on: NCI-H460 lung
# HCC-2998 colon = tested on: HCC-2998 colon
# HS 578T breast = tested on: HS 578T breast
# DU-145 prostate = tested on: DU-145 prostate
# CAKI-1 renal = tested on: CAKI-1 renal
# SK-MEL-2 melanoma = tested on: SK-MEL-2 melanoma
# NCI/ADR-RES ovarian = tested on: NCI/ADR-RES ovarian
# UO-31 renal = tested on: UO-31 renal
# ACHN renal = tested on: ACHN renal
# LOX IMVI melanoma = tested on: LOX IMVI melanoma
# A498 renal = tested on: A498 renal
# K-562 leukemia = tested on: K-562 leukemia
# SW-620 colon = tested on: SW-620 colon
# SNB-19 CNS = tested on: SNB-19 CNS
# OVCAR-5 ovarian = tested on: OVCAR-5 ovarian
# NCI-H23 lung = tested on: NCI-H23 lung
# SK-OV-3 ovarian = tested on: SK-OV-3 ovarian
smiles,measurement,setting,value
COc1ccc([C@@H]2[C@@H](O)C(=O)N2c2cc(OC)c(OC)c(OC)c2)cc1,GI50,MCF7 breast,0.0351 µM
same,TGI,MCF7 breast,> 100 µM
same,GI50,A549 NSCLC,0.0924 µM
same,TGI,A549 NSCLC,> 100 µM
same,GI50,OVCAR-8 ovarian,0.0376 µM
same,TGI,OVCAR-8 ovarian,> 100 µM
same,GI50,OVCAR-4 ovarian,5.86 µM
same,TGI,OVCAR-4 ovarian,> 100 µM
same,GI50,TK-10 renal,32.9 µM
same,TGI,TK-10 renal,> 100 µM
same,GI50,SF-539 CNS,0.0305 µM
same,TGI,SF-539 CNS,> 100 µM
same,GI50,U251 CNS,0.0404 µM
same,TGI,U251 CNS,> 100 µM
same,TGI,SK-MEL-28 melanoma,> 100 µM
same,GI50,EKVX NSCLC,0.0799 µM
same,TGI,EKVX NSCLC,> 100 µM
same,GI50,786-0 renal,0.0916 µM
same,TGI,786-0 renal,> 100 µM
same,GI50,COLO 205 colon,0.0696 µM
same,TGI,COLO 205 colon,0.173 µM
same,GI50,BT-549 breast,0.0941 µM
same,TGI,BT-549 breast,2.43 µM
same,GI50,NCI-H460 lung,0.0593 µM
same,TGI,NCI-H460 lung,> 100 µM
same,GI50,HCC-2998 colon,0.0982 µM
same,TGI,HCC-2998 colon,10 µM
same,GI50,HS 578T breast,0.041 µM
same,TGI,HS 578T breast,> 100 µM
same,GI50,DU-145 prostate,0.0761 µM
same,TGI,DU-145 prostate,> 100 µM
same,GI50,CAKI-1 renal,0.0486 µM
same,TGI,CAKI-1 renal,> 33.8 µM
same,GI50,SK-MEL-2 melanoma,0.135 µM
same,TGI,SK-MEL-2 melanoma,> 100 µM
same,GI50,NCI/ADR-RES ovarian,0.0725 µM
same,TGI,NCI/ADR-RES ovarian,> 100 µM
same,GI50,UO-31 renal,0.0659 µM
same,TGI,UO-31 renal,> 100 µM
same,GI50,ACHN renal,0.0723 µM
same,TGI,ACHN renal,> 100 µM
same,GI50,LOX IMVI melanoma,0.0473 µM
same,TGI,LOX IMVI melanoma,> 100 µM
same,GI50,A498 renal,11.3 µM
same,TGI,A498 renal,> 88.7 µM
same,GI50,K-562 leukemia,0.0339 µM
same,TGI,K-562 leukemia,> 100 µM
same,GI50,SW-620 colon,0.0504 µM
same,TGI,SW-620 colon,> 100 µM
same,GI50,SNB-19 CNS,0.12 µM
same,TGI,SNB-19 CNS,> 100 µM
same,GI50,OVCAR-5 ovarian,0.0613 µM
same,TGI,OVCAR-5 ovarian,> 100 µM
same,GI50,NCI-H23 lung,0.063 µM
same,TGI,NCI-H23 lung,> 100 µM
same,GI50,SK-OV-3 ovarian,0.147 µM
same,TGI,SK-OV-3 ovarian,> 57.1 µM
